Data: patent US5126345A, “Bis (hydroxymethyl) cyclobutyl triazolopyrimidines” (E. R. Squibb & Sons, Inc., priority 1991, dated 1992)
Where two headings read alike, the source gives them in different places.

Columns and labels:
Assay type in all cases: cell-based
[1] = tested on: HSV-1 (herpes simplex virus type 1, strain Schooler); assay: HSV-1 antiviral assay, plaque reduction in WI-38 cell culture monolayers; conditions: Human alphaherpesvirus 1, 96 h; at least 50% plaque reduction; WI-38 cells; 4 days incubation at 37° C; read-out: ID50 HSV-1
Experimental: (§1) Assays were performed in cell culture systems to determine the concentrations of compounds that are effective in preventing several kinds of viral infections.
(§2) HSV-1 (herpes simplex virus type 1, strain Schooler), HSV-2 (herpes simplex virus type 2, strain 186), VZV (varicella zoster virus, strain ELLEN), HCMV (human cytomegalovirus, strain AD 169), MuLV (murine leukemia virus, strain CAS), HIV (human immunodeficiency virus, strain HTLV-IIIB).
(§3) HSV-1, HSV-2, HCMV, and VZV antiviral assays: Virus was adsorbed to WI-38 cell culture monolayers in 6 well culture plates (Costar, Cambridge, MA) for 1 hour prior to addition of maintenance medium containing duplicate dilutions of the test compound. Inhibition of plaque development was evaluated on fixed and stained monolayers after 4 days incubation at 37° C. for HSV-1 and HSV-2 and after 6-7 days incubation at 37° C. for HCMV and VZV. ID50 values were determined from the drug concentration which conferred at least a 50% plaque reduction compared to virus controls.

[2] = tested on: VZV (varicella zoster virus, strain ELLEN); assay: VZV antiviral assay, plaque reduction in WI-38 cell culture monolayers
Experimental: as §1, §2, §3

[3] = tested on: HCMV (human cytomegalovirus, strain AD 169); assay: HCMV antiviral assay, plaque reduction in WI-38 cell culture monolayers
Experimental: as §1, §2, §3

[4] = tested on: HSV-2 (herpes simplex virus type 2, strain 186); assay: HSV-2 antiviral assay, plaque reduction in WI-38 cell culture monolayers; conditions: Human alphaherpesvirus 2, 96 h; at least 50% plaque reduction; WI-38 cells; 4 days incubation at 37° C; read-out: ID50 HSV-2
Experimental: as §1, §2, §3

[5] = tested on: MuLV (murine leukemia virus, strain CAS); assay: MuLV antiviral assay, syncytial plaques, SC-1 cells with XC cell overlay; conditions: SC1, read-out: ID50 MuLV
Experimental: as §1, §2
MuLV antiviral assay: Antiviral assays using MuLV were performed with some modification, as described by Rowe et al. and Shannon et al.. SC-1 cells were planted at approximately 2×10^5 cell per well in 6 well plates. After overnight incubation at 37° C., the cell cultures were sensitized with DEAE-Dextran for one hour at 37° C., rinsed and inoculated with MuLV. Cultures were re-fed with growth medium containing different concentrations of the test compound. After three more days at 37° C., cultures were re-fed with fresh medium plus test compounds and incubated at 37° C. for an additional 3 days. Cultures were then washed to remove medium, ultraviolet light irradiated, and planted with approximately 5×10^5 XC cells per well in cell growth medium containing the appropriate concentration of the test compound. […] Finally the cultures were rinsed, stained and syncytial plaques were counted. […]

[6] = Human alphaherpesvirus 3, at least 50% plaque reduction, WI-38 cells, 6-7 days incubation at 37° C, read-out: ID50 VZV
[7] = Human betaherpesvirus 5, WI-38, read-out: ID50 HCMV
[8] = Human alphaherpesvirus 3, WI-38, read-out: ID50 VZV

| Structure (SMILES) | IC50 [1] | IC50 [2, 6] | IC50 [3, 7] | IC50 [4] | IC50 ([3]; Human betaherpesvirus 5, at least 50% plaque reduction, WI-38 cells, 6-7 days incubation at 37° C, read-out: ID50 HCMV) | IC50 [2, 8] | IC50 [5] |
| --- | --- | --- | --- | --- | --- | --- | --- |
| O=c1[nH]c(=O)n([C@H]2C[C@@H](CO)[C@@H]2CO)cc1I (relative stereo) [(1α,2β,3α)-1-[2,3-Bis(hydroxymethyl)cyclobutyl]-5-iodo-2,4(1H,3H)-pyrimidinedione] | 6 to 14 µM | 14 to 28 µM | – | – | – | – | – |
| Nc1ncnc2c1ncn2[C@H]1C[C@@H](CO)[C@@H]1CO (relative stereo) [(1α,2β,3α)-3-(6-Amino-9H-purin-9-yl)1,2-cyclobutanedimethanol] | 8 µM | 0.8 to 2 µM | 0.8 µM | 4 to 8 µM | – | – | – |
| Nc1ccn([C@H]2C[C@@H](CO)[C@@H]2CO)c(=O)n1 (relative stereo) [(1α,2β,3α)-4-Amino-1-[2,3-bis(hydroxymethyl)cyclobutyl]-2(1H)-pyrimidinone] | 444 µM | – | – | 444 µM | 22 to 44 µM | 22 µM | – |
| Nc1nc2c(nnn2[C@H]2C[C@@H](CO)[C@@H]2CO)c(=O)[nH]1 (relative stereo) [(1α,2β,3α)-5-Amino-3-[2,3-bis(hydroxymethyl)cyclobutyl]-3,6-dihydro-7H-1,2,3-triazolo[4,5-d]pyrimidin-7-one] | 7.5 µM | – | 376 µM | 7.5 µM | – | – | – |
| Nc1nc2c(ncn2[C@H]2C[C@@H](CO)[C@@H]2CO)c(=O)[nH]1 (relative stereo) [(1α,2β,3α)-9-[2,3-Bis(hydroxymethyl)cyclobutyl]guanine] | 0.08 to 0.2 µM | – | 3.8 µM | 0.04 to 0.08 µM | – | 0.2 µM | 3.8 µM |
| O=c1[nH]c(=O)n([C@H]2C[C@@H](CO)[C@@H]2CO)cc1/C=C/Br (relative stereo) [[1α(E),2β,3α]-1-[2,3-Bis(hydroxymethyl)cyclobutyl]-5-(2-bromoethenyl)-2,4(1H,3H)pyrimidinedione] | 10 to 30 µM | 0.03 to 0.06 µM | – | – | – | – | – |
